Data on two substances can be found in patent US20080113918A1, “AGONIST POLYPEPTIDE OF RECEPTOR FOR ZOT AND ZONULIN” (University of Maryland - Baltimore, priority 2003, published 2008).

For one series, the system named is PAR-2. The series can be described thus: FZI/0-PAR-2 AP competitive binding in Caco2 cells. More on the design: species or system human. The method, then:
FIGS. 4A-4D. FZI/0-PAR-2 AP competitive binding experiments.
FZI/0-PAR-2 AP competitive binding experiments. The activation of PAR-2 requires binding of either its tryptase-generated, cleaved N-terminal portion or the synthetic peptide equivalent, PAR-2 AP, to the receptor's extracellular loop 2 (ECL2) (47). To establish whether FZI/0 binds to the same receptor domain, competitive binding experiments were conducted in Caco2 cells. Cell monolayers were incubated with FITC-FZI/0 (2×10^−8M)) either in the presence of an excess of PAR-2 AP (10^−6M) or a scrambled peptide and then analyzed by fluorescence microscopy.

In series [1] the test system is wild-type mouse intestinal tissues. The series is described as follows: Intestinal TEER in wild-type mice tissues.
The test system of the next series is Caco2 cell monolayers. The series can be described thus: PAR-2 AP-induced actin rearrangement in Caco2 cell monolayers. Type of series: cell-based, human. Conditions: 10^−6M PAR-2 AP, Caco2, vs BSA. From the text:
FIGS. 5A to 5D. Actin cytoskeleton arrangement in Caco2 cells exposed to PAR2-AP (FIG. 5A), BSA (FIG. 5B), PAR2-AP+FZI/0 (FIG. 5C), or PAR-2 AP+FZI/1 (FIG. 5D).
Effect of the Zot/zonulin inhibitor FZI/0 on PAR-2 AP-induced actin rearrangement. It has been recently reported that activation of PAR-2 receptor by PAR-2 AP promotes cytoskeletal reorganization (53). To establish whether this effect can be prevented by the synthetic Zot/zonulin peptide inhibitor, FZI/0, immunofluorescence studies were conducted in Caco2 cell monolayers. […] These cytoskeletal changes were blocked by the pre-incubation with 2×10^−6M FZI/0 (FIG. 5C), but not by the scrambled peptide FZI/1 (FIG. 5D). Therefore, PAR-2 AP and FZI/0 appear to bind to the identical structure on enterocytes.

No end group written: not given here.

As to GGVLVQPG [FZI/0], the “binding to Caco2 cells (fluorescent particles)” value in the series with PAR-2 (FITC-labelled FZI/0 vs media control) is “significant number of fluorescent particles”.

Turning to SLIGRL [PAR-2 AP], the “intestinal resistance (TEER) over time” value in series [1] is “comparable drop in intestinal resistance”. In the series on Caco2 cell monolayers, the actin cytoskeleton arrangement result was “dissolution of stress fibers”. Moreover, in the series on PAR-2 (FITC-FZI/0 2×10^−8M, excess of competitor (PAR-2 AP 10^−6M; 100×)), the “displacement of FITC-FZI/0 binding” value is recorded as “significant reduction of FZI/0 immunofluorescent staining particles”.
